The values that follow come from ChEMBL document CHEMBL5653631, “A Potent and Selective ULK1 Inhibitor Suppresses Autophagy and Sensitizes Cancer Cells to Nutrient Stress” (iScience, 2018).

Broadly, the inhibition is the change of the read-out against control, counted positive when it falls.

Experiment [1] concerns the target Homeodomain-interacting protein kinase 1 (Homo sapiens) (UniProt Q86Z02). In words: Inhibition of human recombinant HIPK1 at 40 nM in presence of ATP by radiometric assay relative to control.
Experiment [2] addresses T1, Interleukin-1 receptor-associated kinase 4 (Homo sapiens) (UniProt Q9NWZ3).
T1 sequence (whole entry): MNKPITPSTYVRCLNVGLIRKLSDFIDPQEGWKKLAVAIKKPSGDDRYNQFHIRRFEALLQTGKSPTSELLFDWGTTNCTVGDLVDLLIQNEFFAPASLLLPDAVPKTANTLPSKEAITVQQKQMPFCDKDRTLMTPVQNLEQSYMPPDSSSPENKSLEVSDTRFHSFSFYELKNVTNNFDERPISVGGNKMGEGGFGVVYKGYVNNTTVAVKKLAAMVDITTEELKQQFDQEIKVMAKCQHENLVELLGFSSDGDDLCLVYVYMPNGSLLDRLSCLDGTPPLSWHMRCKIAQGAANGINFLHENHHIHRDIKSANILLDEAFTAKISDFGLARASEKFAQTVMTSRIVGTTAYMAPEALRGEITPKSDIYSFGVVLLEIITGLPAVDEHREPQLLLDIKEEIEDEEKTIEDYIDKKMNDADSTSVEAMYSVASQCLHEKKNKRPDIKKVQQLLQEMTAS
In words: Inhibition of human recombinant IRAK4 at 40 nM in presence of ATP by radiometric assay relative to control.

Experiment [3] deals with Casein kinase I isoform gamma-1 (Homo sapiens) (UniProt Q9HCP0). Put plainly: Inhibition of human recombinant CK1g1 at 500 nM related to control ULK1.
Chain of Casein kinase I isoform gamma-1 (Homo sapiens) (Q9HCP0 whole entry, looked up, canonical isoform): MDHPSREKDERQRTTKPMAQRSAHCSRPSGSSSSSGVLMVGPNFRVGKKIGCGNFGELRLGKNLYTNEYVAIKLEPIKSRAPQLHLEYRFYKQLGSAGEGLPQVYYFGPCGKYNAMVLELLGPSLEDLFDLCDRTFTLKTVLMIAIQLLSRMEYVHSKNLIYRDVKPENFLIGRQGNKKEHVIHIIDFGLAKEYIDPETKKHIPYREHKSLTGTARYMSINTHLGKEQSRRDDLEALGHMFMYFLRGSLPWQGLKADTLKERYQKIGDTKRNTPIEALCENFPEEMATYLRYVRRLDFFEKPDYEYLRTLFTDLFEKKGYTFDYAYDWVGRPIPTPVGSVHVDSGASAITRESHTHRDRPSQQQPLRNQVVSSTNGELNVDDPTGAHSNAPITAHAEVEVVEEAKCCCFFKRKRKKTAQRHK
For experiment [4], the target named is T2, G protein-coupled receptor kinase 3 (Homo sapiens) (UniProt P35626).
T2 sequence (whole entry): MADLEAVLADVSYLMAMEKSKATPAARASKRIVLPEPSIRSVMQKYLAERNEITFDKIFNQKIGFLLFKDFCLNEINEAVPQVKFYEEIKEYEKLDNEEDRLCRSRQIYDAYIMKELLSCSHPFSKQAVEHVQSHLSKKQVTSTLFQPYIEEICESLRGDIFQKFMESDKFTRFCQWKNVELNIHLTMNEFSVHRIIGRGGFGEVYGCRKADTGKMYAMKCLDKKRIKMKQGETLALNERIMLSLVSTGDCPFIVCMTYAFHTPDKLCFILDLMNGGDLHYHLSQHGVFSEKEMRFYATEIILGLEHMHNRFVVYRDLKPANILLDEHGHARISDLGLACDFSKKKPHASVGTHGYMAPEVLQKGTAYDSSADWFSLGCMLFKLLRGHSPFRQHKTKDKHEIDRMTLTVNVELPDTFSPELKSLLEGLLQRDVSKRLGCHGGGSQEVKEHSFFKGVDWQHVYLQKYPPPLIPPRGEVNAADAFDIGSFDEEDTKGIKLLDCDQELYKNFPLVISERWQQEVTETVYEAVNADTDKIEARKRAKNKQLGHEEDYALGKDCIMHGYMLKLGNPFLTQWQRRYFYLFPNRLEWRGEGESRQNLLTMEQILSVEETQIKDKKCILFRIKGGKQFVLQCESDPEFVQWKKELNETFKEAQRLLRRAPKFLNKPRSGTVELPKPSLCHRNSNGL
Put plainly: Inhibition of human recombinant BARK2 at 500 nM related to control ULK1.

The target in experiment [5] is Mitogen-activated protein kinase 11 (Homo sapiens) (UniProt Q15759). Put plainly: Inhibition of human recombinant p38beta at 500 nM in presence of ATP by radiometric assay relative to control.
Chain of Mitogen-activated protein kinase 11 (Homo sapiens) (Q15759 whole entry): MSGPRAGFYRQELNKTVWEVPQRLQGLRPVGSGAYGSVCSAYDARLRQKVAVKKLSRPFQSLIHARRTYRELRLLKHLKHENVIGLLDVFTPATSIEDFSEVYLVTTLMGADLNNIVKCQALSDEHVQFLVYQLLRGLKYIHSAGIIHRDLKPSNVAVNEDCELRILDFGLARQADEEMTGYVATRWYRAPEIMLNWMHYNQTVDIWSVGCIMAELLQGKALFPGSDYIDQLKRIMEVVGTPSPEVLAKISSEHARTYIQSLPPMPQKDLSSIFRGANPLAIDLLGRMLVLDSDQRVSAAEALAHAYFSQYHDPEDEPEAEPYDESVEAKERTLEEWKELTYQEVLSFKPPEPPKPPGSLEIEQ
Experiment [6] has as its target Serine/threonine-protein kinase MARK2 (Homo sapiens) (UniProt Q7KZI7). Put plainly: Inhibition of human recombinant MARK2 at 500 nM in presence of ATP by radiometric assay relative to control.
The target of experiment [7] is Casein kinase I isoform gamma-2 (Homo sapiens) (UniProt P78368). In words: Inhibition of human recombinant CK1g2 at 15 nM in presence of ATP by radiometric assay relative to control.
Chain of Casein kinase I isoform gamma-2 (Homo sapiens) (P78368 whole entry, looked up, canonical isoform): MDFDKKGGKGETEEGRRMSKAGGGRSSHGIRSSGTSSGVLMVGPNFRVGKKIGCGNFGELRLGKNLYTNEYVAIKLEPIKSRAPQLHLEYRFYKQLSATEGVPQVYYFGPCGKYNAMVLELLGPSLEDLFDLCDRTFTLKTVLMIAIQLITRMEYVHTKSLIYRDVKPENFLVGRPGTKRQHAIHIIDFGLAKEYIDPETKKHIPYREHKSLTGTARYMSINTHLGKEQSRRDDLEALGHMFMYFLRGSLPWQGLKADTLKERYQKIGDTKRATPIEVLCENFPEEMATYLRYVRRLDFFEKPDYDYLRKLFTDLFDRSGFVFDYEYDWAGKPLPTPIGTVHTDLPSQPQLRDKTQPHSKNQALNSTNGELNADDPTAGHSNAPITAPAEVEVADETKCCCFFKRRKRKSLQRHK
The target in experiment [8] is T3, Serine/threonine-protein kinase Nek9 (Homo sapiens) (UniProt Q8TD19).
T3 sequence (whole entry): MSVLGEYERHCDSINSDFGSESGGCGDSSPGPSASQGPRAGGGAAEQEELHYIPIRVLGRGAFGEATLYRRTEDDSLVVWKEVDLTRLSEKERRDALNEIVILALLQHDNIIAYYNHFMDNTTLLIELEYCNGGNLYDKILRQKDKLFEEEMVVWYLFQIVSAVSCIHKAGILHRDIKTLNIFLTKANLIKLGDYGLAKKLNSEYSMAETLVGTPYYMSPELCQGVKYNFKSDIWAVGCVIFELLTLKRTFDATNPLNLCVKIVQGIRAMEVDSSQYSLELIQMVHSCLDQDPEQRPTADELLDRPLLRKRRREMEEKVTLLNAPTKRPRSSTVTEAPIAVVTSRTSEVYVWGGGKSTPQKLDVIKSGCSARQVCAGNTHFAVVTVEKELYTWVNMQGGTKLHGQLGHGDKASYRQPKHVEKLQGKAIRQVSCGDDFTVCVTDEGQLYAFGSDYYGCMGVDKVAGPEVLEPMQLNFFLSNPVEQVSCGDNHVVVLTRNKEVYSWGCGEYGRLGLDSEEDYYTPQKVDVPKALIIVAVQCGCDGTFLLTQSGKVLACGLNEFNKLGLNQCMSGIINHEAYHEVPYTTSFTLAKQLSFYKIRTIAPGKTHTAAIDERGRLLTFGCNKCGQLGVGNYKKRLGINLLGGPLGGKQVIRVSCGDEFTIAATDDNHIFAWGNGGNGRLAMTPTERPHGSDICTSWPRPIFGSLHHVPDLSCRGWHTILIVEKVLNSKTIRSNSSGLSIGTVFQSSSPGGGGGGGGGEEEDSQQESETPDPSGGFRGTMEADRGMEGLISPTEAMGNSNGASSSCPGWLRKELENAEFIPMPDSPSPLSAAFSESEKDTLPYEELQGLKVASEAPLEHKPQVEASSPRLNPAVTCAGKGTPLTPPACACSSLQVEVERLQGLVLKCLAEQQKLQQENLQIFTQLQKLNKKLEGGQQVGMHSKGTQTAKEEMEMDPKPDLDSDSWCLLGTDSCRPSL
In words: Inhibition of human recombinant NEK9 at 15 nM related to control ULK1.

The target of experiment [9] is Serine/threonine-protein kinase PAK 3 (Homo sapiens) (UniProt O75914). Put plainly: Inhibition of human recombinant PAK3 at 15 nM in presence of ATP by radiometric assay relative to control.
Chain of Serine/threonine-protein kinase PAK 3 (Homo sapiens) (O75914 whole entry, looked up): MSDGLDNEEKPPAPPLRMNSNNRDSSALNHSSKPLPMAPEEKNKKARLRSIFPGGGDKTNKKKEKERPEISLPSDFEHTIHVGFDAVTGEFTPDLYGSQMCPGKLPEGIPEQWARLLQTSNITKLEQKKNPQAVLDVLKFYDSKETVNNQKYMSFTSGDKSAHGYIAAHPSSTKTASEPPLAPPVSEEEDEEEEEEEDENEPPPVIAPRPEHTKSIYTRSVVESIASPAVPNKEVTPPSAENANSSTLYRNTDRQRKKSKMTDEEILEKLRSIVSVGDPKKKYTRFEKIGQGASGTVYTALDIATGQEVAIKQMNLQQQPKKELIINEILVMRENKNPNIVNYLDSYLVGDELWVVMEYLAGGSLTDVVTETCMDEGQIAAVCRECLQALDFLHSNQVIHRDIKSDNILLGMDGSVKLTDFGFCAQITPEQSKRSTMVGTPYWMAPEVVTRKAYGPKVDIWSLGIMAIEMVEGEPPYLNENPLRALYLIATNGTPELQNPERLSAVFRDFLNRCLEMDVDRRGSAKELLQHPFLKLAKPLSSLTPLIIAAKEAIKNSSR
Experiment [10] has as its target Ephrin type-A receptor 7 (Homo sapiens) (UniProt Q15375). Put plainly: Inhibition of human recombinant EphA7 at 15 nM in presence of ATP by radiometric assay relative to control.

Chain of Serine/threonine-protein kinase MARK2 (Homo sapiens) (Q7KZI7 whole entry, canonical isoform): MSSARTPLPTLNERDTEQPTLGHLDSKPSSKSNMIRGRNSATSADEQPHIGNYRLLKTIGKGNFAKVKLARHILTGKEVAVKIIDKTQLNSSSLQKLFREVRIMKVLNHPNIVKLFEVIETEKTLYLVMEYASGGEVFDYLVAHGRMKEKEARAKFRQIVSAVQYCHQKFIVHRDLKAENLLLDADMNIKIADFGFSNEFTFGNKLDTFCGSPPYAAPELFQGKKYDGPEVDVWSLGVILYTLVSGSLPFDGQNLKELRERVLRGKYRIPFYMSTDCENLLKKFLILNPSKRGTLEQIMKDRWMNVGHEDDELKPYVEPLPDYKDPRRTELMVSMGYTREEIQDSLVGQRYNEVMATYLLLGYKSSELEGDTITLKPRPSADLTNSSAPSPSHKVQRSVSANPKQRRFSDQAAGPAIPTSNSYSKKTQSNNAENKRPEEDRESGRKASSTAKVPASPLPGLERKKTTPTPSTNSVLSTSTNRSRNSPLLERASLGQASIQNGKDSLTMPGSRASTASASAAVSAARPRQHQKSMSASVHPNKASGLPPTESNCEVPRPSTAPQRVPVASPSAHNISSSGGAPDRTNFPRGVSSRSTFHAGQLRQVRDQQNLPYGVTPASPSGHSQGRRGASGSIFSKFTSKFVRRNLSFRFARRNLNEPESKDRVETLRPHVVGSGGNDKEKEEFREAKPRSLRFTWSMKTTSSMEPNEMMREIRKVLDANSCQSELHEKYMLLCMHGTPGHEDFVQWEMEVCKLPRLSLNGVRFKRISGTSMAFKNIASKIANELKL
Chain of Homeodomain-interacting protein kinase 1 (Homo sapiens) (Q86Z02 whole entry, looked up): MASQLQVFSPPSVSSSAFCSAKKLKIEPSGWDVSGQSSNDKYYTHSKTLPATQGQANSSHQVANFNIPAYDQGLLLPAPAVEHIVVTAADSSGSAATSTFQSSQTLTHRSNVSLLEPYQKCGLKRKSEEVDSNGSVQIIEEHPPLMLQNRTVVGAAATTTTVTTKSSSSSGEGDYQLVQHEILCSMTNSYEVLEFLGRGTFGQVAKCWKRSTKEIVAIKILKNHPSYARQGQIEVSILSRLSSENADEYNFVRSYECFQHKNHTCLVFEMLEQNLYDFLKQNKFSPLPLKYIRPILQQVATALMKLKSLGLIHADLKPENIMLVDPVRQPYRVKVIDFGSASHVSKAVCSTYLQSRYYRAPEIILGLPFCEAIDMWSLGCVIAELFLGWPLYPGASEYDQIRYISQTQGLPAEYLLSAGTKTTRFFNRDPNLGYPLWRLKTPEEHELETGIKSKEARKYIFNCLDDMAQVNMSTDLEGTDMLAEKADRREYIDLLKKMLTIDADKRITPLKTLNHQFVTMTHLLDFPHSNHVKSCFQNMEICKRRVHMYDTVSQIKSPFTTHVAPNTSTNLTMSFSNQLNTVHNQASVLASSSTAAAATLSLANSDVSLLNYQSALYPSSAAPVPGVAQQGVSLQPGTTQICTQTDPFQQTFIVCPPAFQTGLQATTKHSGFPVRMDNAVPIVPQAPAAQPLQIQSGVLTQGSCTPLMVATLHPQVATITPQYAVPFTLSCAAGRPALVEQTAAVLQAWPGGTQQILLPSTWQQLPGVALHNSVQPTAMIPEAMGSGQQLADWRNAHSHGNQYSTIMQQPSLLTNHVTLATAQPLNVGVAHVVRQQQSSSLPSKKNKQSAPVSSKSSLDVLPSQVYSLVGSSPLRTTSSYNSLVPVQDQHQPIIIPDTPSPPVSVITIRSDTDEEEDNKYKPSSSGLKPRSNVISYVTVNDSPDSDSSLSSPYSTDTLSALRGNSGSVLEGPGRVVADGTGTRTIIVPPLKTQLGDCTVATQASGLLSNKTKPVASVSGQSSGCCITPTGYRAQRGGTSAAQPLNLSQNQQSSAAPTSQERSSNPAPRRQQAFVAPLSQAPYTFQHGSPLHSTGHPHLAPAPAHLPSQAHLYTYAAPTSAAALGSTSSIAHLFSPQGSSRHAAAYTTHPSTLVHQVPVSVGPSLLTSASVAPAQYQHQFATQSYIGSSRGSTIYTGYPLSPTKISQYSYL
Chain of Ephrin type-A receptor 7 (Homo sapiens) (Q15375 28-998 limits assumed): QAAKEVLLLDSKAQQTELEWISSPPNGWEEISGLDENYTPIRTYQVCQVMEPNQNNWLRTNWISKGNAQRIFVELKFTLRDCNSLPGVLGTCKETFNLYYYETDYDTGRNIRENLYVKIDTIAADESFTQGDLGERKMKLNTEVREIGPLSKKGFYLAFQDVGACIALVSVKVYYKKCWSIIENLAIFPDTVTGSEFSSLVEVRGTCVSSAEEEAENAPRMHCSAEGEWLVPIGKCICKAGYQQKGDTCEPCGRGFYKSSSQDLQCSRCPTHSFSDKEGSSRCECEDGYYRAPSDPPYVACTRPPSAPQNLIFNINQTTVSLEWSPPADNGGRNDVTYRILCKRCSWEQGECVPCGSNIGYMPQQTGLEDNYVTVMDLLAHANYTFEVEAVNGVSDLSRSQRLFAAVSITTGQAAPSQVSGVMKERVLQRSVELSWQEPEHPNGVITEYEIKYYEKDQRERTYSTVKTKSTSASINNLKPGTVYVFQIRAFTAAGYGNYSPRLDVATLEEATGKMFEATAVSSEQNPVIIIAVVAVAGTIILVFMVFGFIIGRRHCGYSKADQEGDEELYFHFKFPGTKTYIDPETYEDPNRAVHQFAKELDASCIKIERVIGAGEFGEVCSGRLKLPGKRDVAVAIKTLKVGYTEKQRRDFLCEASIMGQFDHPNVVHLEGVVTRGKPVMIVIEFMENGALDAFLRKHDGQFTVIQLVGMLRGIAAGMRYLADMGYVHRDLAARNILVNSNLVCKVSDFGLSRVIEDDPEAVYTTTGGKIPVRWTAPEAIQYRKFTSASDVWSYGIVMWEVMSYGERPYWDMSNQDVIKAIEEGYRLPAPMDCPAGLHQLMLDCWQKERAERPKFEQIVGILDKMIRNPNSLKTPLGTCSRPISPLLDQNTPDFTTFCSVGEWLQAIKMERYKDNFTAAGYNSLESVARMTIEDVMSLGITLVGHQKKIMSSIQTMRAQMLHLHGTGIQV

As for `O=C(N[C@@H](C1CC1)C(F)(F)F)c1cc(-c2cnn3cc(-c4ccc(F)cc4)cnc23)cs1`, the inhibition in [1] and in experiment [2] was 0% each time.

Turning to `CNC(=O)c1ccccc1Oc1nc(Nc2cc(OC)c(OC)c(OC)c2)ncc1Br`, the fold change (FC) is 0 in experiment [3] and 0.09 in experiment [4]. In addition, the figures for the inhibition in experiment [5] and in [6] were 2% and 50%, respectively.

Consider `CC(C)[C@H](NC(=O)c1cc(-c2cnn3cc(-c4ccc(OCCN5CCCCC5)cc4)cnc23)cs1)C(F)(F)F`, for which the inhibition turned out to be 0% in experiment [7], 4% in experiment [9] and 0% in experiment [10]. For the same compound, in experiment [8], the fold change (FC) is 0.25.
